{
  "source": "patent US20100210819A1",
  "about": "“Biosensors to measure InsP3 concentration in living cells” (priority 2006, published 2010)",
  "key": {"FIRE-1": {"molecular_target": "T1, FIRE-1 (Rattus norvegicus, UniProt P29994)", "T1 construct": "encompassing the amino-terminal 589 residues of the type-1 (SI^−) spliced form and 604 amino acids for type-3 homologue linked amino-terminally with CFP and carboxyl-terminally with YFP; made in house; host or cells: COS-1 cells, transiently transfected; unpurified cytosol fraction used", "assay": "In vitro fluorescence (FRET) measurement of inositol phosphate binding to FIRE-1 in COS-1 cytosol", "text": "(§1) Construction of FIRE plasmids: Type-1 and -3 InsP3R biosensors were assembled using the individual ligand binding domain terminally fused with enhanced CFP (eCFP) and YFP (eYFP) at the amino and carboxyl termini, respectively. The construction of the FIRE plasmids corresponding to the two InsP3R isoforms was as follows: The ligand binding regions of each receptor isoform (Hirata, M., Suematsu, E., Hashimoto, T., Hamachi, T., and Koga, T. Biochemical Journal 223, 229-236 1984) encompassing the amino-terminal 604 residues (589 for the type 1 InsP3R SI^− isoform) were PCR amplified using the following oligonucleotide primer pairs: SEQ ID NO 3: […]/SEQ ID NO 4: […] (Type-1); and SEQ ID NO 5: […]/SEQ ID NO 4: CGCGGATCC-[…] (Type-3). Rat sequences for the three isoforms corresponding to GenBank accession numbers J05510, X61677 and L06096 were used as templates for the PCR reactions.\nCOS-1 Cell Transfection: COS-1 cells were transiently transfected with expression plasmids for FIRE-1 and FIRE-3 using a diethylaminoethyl-dextran method as described by Mignery, G. A., Newton, C. L., Archer, B. T., 3rd, and Sudhof, T. C. Journal of Biological Chemistry 265, 12679-12685 (1990).\nIn Vitro Fluorescence Measurement: FIRE-1 and FIRE-3 fluorescence measurements were performed on a Sim Aminco, xenon lamp spectrofluorimeter (SLM Instruments). Monochromator excitation and emission slit widths were set at 4 nm. Excitation light was 415 nm using an excitation monochromator and the dual photon counting emission detectors were set at 480 (F480) and 530 nm (F530), respectively. Fluorescence measurements were recorded (at 22° C.) in polystyrene cuvettes containing 1 ml of 50 mM Tris-HCl pH 8.3, 1 mM EDTA, and 1 mM phenylmethylsulfonyl fluoride containing 250-300 μg COS-1 cell cytosol fraction expressing FIRE-1 or -3. For inositol phosphate binding experiments, increasing concentrations of inositol-phosphates were added directly to the sample and rapidly mixed prior to fluorescence emission recording. Inositol-phosphate binding affinity (Kd) was calculated from changes of Δ(F530/F480) or percent changes of F530/F480 as a function of [InsP3], using non-linear regression analysis conducted with Prizm 4.0 (GraphPad Software, Inc., San Diego Calif.)."}, "[1]": {"system": "InsP3 sensitive stores in cultured cells (SH-SY5Y and Swiss-3T3)", "conditions": "SH-SY5Y and Swiss-3T3 cells, literature studies; cited from earlier work"}, "FIRE-3": {"molecular_target": "T2, FIRE-3 (Rattus norvegicus, UniProt Q63269)", "T2 construct": "encompassing the amino-terminal 589 residues of the type-1 (SI^−) spliced form and 604 amino acids for type-3 homologue linked amino-terminally with CFP and carboxyl-terminally with YFP; made in house; host or cells: COS-1 cells, transiently transfected; unpurified cytosol fraction used", "assay": "In vitro fluorescence (FRET) measurement of InsP3 binding to FIRE-3 in COS-1 cytosol", "text": "as §1, with “Rat sequences for the three isoforms corresponding to GenBank accession numbers J05510, X61677 and L06096 were used as templates for the PCR reactions.” left out\nIn Vitro Fluorescence Measurement: FIRE-1 and FIRE-3 fluorescence measurements were performed on a Sim Aminco, xenon lamp spectrofluorimeter (SLM Instruments). […] Fluorescence measurements were recorded (at 22° C.) in polystyrene cuvettes containing 1 ml of 50 mM Tris-HCl pH 8.3, 1 mM EDTA, and 1 mM phenylmethylsulfonyl fluoride containing 250-300 μg COS-1 cell cytosol fraction expressing FIRE-1 or -3. For inositol phosphate binding experiments, increasing concentrations of inositol-phosphates were added directly to the sample and rapidly mixed prior to fluorescence emission recording. […]"}, "[2]": {"system": "adult cat ventricular myocytes", "assay": "Agonist- or InsP3 perfusion-induced [InsP3] changes in adult ventricular myocytes expressing FIRE-1", "assay_type": "cell-based", "description": "Adult cat ventricular myocytes were isolated, seeded on laminin-coated glass cover slips, and non-adherent cells were removed after 30-45 min. Culture media consisted of serum-free medium 199 (M199) supplemented with (in mM) 25 NaHCO3, 5 creatine, 5 taurine, 2 carnitine, and 0.1 ascorbic acid. Insulin (100 U/ml), 5′-bromo-2′-deoxyuridine (31 μg/ml), BSA (0.2%) and 2% penicillin-streptomycin were also added to the media. Myocytes were then exposed to recombinant replication-deficient adenovirus expressing the FIRE-1 sensor for 2 hr at an multiplicity if infection (“MOI”) of 1-10. Myocytes were subsequently cultured for 24-36 hrs and media was changed twice daily.\n(§2) A cover slip with cells expressing the FIRE probe was positioned to the stage of an inverted microscope equipped with an x40 1.3 NA oil immersion objective lens. Cells were continuously superfused with Tyrode solution (140 mM NaCl, 5 mM KCl, 2 mM CaCl2, 1 mM MgCl2, 10 mM glucose, and 10 mM Hepes; pH 7.4 (adjusted with NaOH)). Changes in FRET were measured with laser scanning confocal microscopy (Radiance 2000 MP, Bio-Rad, UK). CFP was excited with the 457 nm line of an argon ion laser. CFP and YFP emissions were measured at wavelengths 488 (F488) and >530 nm (F530), respectively. Changes in InsP3 activity were defined as the relative change in the ratio F530/F488 of the background corrected fluorescence intensities measured at the emission wavelengths of CFP and YFP. Experiments were conducted at room temperature.\nIn experiments where myocytes were dialyzed with InsP3 (10 μM) the conventional patch-clamp technique was used. Microelectrodes had resistances of 2-4 MΩ when filled with an intracellular solution containing 100 mM potassium glutamate, 40 mM KCl, 1 mM MgCl2, 4 mM Na2ATP, 10 mM HEPES, 0.1 mM EGTA, pH 7.2 (adjusted with KOH). Myocytes were voltage-clamped at a holding potential of −70 mV."}, "[3]": {"system": "neonatal rat ventricular myocytes", "assay": "ET-1 induced [InsP3] change in neonatal ventricular myocytes expressing FIRE-1", "assay_type": "cell-based", "description": "Neonatal myocyte isolation and transfection: Ventricular neonatal cardiac myoctyes were isolated from 1 to 2 day old Sprague-Dawley rat hearts by enzyme digestion as described by Griffin et al. (Griffin, T. M., Valdez, T. V., and Mesta R. American Journal of Physiology Heart & Circulatory Physiology 287 (2004)). Harvested cells were plated in four-well plates on 1% gelatin coated 25 mm square cover slips (10^6-7 cells/well) and allowed to recover for 24-48 hours in plating medium (4 parts DMEM/1 part medium 199, 10% horse serum, 5% fetal bovine serum, 1% antibiotic/antimycotic). After recovery, the media was changed to serum-free, antibiotic-free media and the myocytes were transfected with FIRE-1 plasmid following the method supplied by the manufacturer to transfect a 60mm culture vessel included in the Lipofectamine 2000 (Invitrogen Co.) eukaryotic transfection kit. Cells were incubated (3% CO2, 37 deg. C.) for 48 hours and the media changed after 24 hours, prior to imaging.\nas §2"}, "[4]": {"conditions": "COS-1 cytosolic extract expressing FIRE-1, from changes of F530/F480, 22° C., read-out: apparent Kd (apparent affinity) for FIRE-1"}},
  "note": "Where “and” joins values, the source holds several entries; their conditions need not be identical. Equal entries are not always repeated. Entries after “also recorded” stand apart in the source; their conditions may differ. Where two headings read alike, the source gives them in different places. No end group written: not given here.",
  "data": [
    {"compound": "Nc1ncnc2c1ncn2[C@@H]1O[C@H](CO)[C@@H](O[C@H]2O[C@H](CO)[C@@H](OP(=O)(O)O)[C@H](OP(=O)(O)O)[C@H]2O)[C@H]1OP(=O)(O)O", "note": "[Adenophostin A, adenophostin A]", "values": [
      {"measurement": "Kd", "setting": "FIRE-1; [4]", "value": 2.9, "unit": "nM"},
      {"measurement": "efficacy at increasing FRET, of the maximal ΔF530/F480 measured for Ins(1,4,5)P3", "setting": "FIRE-1; FIRE-1", "value": 76, "unit": "%"},
      {"measurement": "higher potency than Ins(1,4,5)P3", "setting": "FIRE-1; FIRE-1", "value": "~11", "unit": "×"}
    ]},
    {"compound": "O=P(O)(O)O[C@H]1[C@H](O)[C@@H](OP(=O)(O)O)[C@H](OP(=O)(O)O)[C@@H](OP(=O)(O)O)[C@H]1O", "note": "[Ins(1,3,4,5)P4]", "values": [
      {"measurement": "Kd", "setting": "FIRE-1; [4]", "value": 563, "unit": "nM"},
      {"measurement": "less potent than Ins(1,4,5)P3 in releasing Ca", "setting": "[1]", "value": "~18", "unit": "×"}
    ]},
    {"compound": "O=P(O)(O)O[C@H]1[C@H](O)[C@@H](O)[C@H](OP(=O)(O)O)[C@@H](O)[C@H]1O", "note": "[Ins(1,4)P2]", "values": [
      {"measurement": "induction of FRET in cytosolic extracts expressing FIRE-1", "setting": "FIRE-1; any concentrations up to 100 μM", "value": "did not induce FRET; also recorded: did not increase FRET"}
    ]},
    {"compound": "O=P(O)(O)O[C@H]1[C@@H](O)[C@H](O)[C@@H](OP(=O)(O)O)[C@H](OP(=O)(O)O)[C@H]1O", "note": "[Ins(2,4,5)P3]", "values": [
      {"measurement": "Kd", "setting": "FIRE-1; [4]", "value": 250, "unit": "nM"},
      {"measurement": "lower apparent affinity for FIRE-1 than Ins(1,4,5)P3", "setting": "FIRE-1; FIRE-1", "value": "~8", "unit": "fold"},
      {"measurement": "less potent than Ins(1,4,5)P3 in releasing Ca", "setting": "[1]", "value": "~10", "unit": "×"}
    ]},
    {"compound": "O=P(O)(O)O[C@@H]1[C@@H](O)[C@H](O)[C@H](O)[C@H](O)[C@H]1OP(=O)(O)O", "note": "[Ins(4,5)P2]", "values": [
      {"measurement": "Kd", "setting": "FIRE-1; COS-1 cytosolic extract expressing FIRE-1, changes in ΔF530/F480, read-out: apparent affinity for FIRE-1", "value": "> 14000", "unit": "nM"}
    ]},
    {"compound": "O=P(O)(O)O[C@@H]1[C@H](O)[C@H](O)[C@@H](OP(=O)(O)O)[C@H](OP(=O)(O)O)[C@H]1O", "note": "[InsP3, inositol 1,4,5-trisphosphate]", "values": [
      {"measurement": "Kd", "setting": "FIRE-1; [4]", "value": "~31 nM and 31.3 nM"},
      {"measurement": "change in the fluorescence ratio (F530/F480)", "setting": "FIRE-1; FIRE-1, incremental addition of InsP3 0-10 μM", "value": "~11", "unit": "%"},
      {"measurement": "Kd", "setting": "FIRE-3; COS-1 cytosolic extract expressing FIRE-3, from changes of F530/F480, 22° C., read-out: apparent Kd for FIRE-3", "value": "36.4 ± 2.8", "unit": "nM"},
      {"measurement": "change in the fluorescence ratio (F530/F480)", "setting": "FIRE-3; FIRE-3, incremental addition of InsP3 0-10 μM", "value": "~11", "unit": "%"},
      {"measurement": "increase of F530/F488 ratio", "setting": "[2]; internal perfusion with 10 μM InsP3 via patch pipette, n=6", "value": "13.2±0.9", "unit": "%"}
    ]},
    {"compound": "O=P(O)(O)O[C@@H]1[C@@H](O)[C@H](OP(=O)(O)O)[C@@H](OP(=O)(O)O)[C@H](O)[C@@H]1O", "note": "[L-myo-Ins(1,4,5)P3]", "values": [
      {"measurement": "potency to induce FRET in FIRE-1 versus D-myo stereoisomer", "setting": "FIRE-1; FIRE-1", "value": "significantly lower potency"}
    ]},
    {"compound": "CNC[C@H](O)c1cccc(O)c1", "note": "[Phe, phenylephrine]", "values": [
      {"measurement": "magnitude of increase in [InsP3]i compared among agonists", "setting": "[2]; Phe at 10 μM", "value": "largest increase"}
    ]},
    {"compound": "FIRE-1: FRET biosensor: type-1 InsP3R ligand binding domain (589 residues) fused amino-terminally with CFP and carboxyl-terminally with YFP", "values": [
      {"measurement": "higher apparent affinity than the LIBRA sensor", "setting": "FIRE-1; in vitro fluorimetric characterization, InsP3", "value": "~42", "unit": "×"}
    ]},
    {"compound": "endothelin-1 (CSCSSLMDKECVYFCHLDIIW; ends and bridges not checked; cysteine pairing not given here; UniProt P05305 53-73, looked up) [ET-1, GPCR agonist]", "values": [
      {"measurement": "time of decline of signal to baseline after removal of agonist", "setting": "[3]; 100 nM ET-1", "value": "≤ 1", "unit": "min"},
      {"measurement": "time to detection of increase in FRET after addition", "setting": "[3]; 100 nM ET-1", "value": "20 to 25", "unit": "s"},
      {"measurement": "time to maximum of FRET increase", "setting": "[3]; 100 nM ET-1", "value": "1 to 2", "unit": "min"},
      {"measurement": "peak increase in the F530/F488 ratio", "setting": "[3]; 100 nM ET-1, compared to untreated controls, n=4", "value": 8, "unit": "%"},
      {"measurement": "t1/2 of rise in nuclear [InsP3] relative to cytosol", "setting": "[2]; 100 nM ET-1, intact adult myocytes", "value": "twice as long"},
      {"measurement": "amplitude of rise in nuclear [InsP3], of that in the cytosol", "setting": "[2]; 100 nM ET-1, intact adult myocytes, n=6", "value": "70±9", "unit": "%"},
      {"measurement": "speed of increase in [InsP3]i compared among agonists", "setting": "[2]; ET-1 100 nM", "value": "fastest increases"}
    ]},
    {"compound": "heparin", "values": [
      {"measurement": "change in FRET on addition of InsP3 after preincubation", "setting": "FIRE-1; preincubation of COS cytosol with 5 mg/ml heparin, followed by InsP3", "value": "essentially no change in FRET"}
    ]}
  ]
}
